Some results are limits rather than exact numbers.

We go through 8 compounds from patent publication US20100048596A2, “Indole Derivatives as Antitumoral Compounds” (Pharma Mar, S.A., priority 2005, published 2010).

Data set [1] has as its system A-549. Particulars: literature; cited from earlier work.
In data set [2] the test system is P388. Particulars: literature; cited from earlier work.
For data set [3], the system named is A549. It is filed as cell-based. Particulars: for GI50 / TGI: A549, 48 hours exposure, SRB; for TGI: total growth inhibition (cytostatic effect). The text has this: (§1) The finality of these assays is to interrupt the growth of an “in vitro” tumor cell culture by means of a continued exhibition of the cells to the sample to be testing.
(§2) Inhibition of Cell Growth by Colorimetric Assay
(§3) A colorimetric type of assay, using sulforhodamine B (SRB) reaction has been adapted for a quantitative measurement of cell growth and viability [following the technique described by Philip Skehan et al. (1990), New calorimetric cytotoxicity assay for anticancer drug screening, J. Natl. Cancer Inst., 82:1107-1112].
(§4) This form of assay employs 96 well cell culture microplates of 9 mm diameter (Faircloth et al. Methods in cell science, (1988), 11(4), 201-205; Mosmann et al, Journal of Immunological. Methods (1983), 65(1-2), 55-63). Most of the cell lines are obtained from American Type Culture Collection (ATCC) derived from different human cancer types.
(§5) Cells are maintained in RPMI 1640 10% FBS, supplemented with 0.1 g/L penicillin and 0.1 g/L streptomycin sulphate and then incubated at 37° C., 5% CO2 and 98% humidity. For the experiments, cells were harvested from subconfluent cultures using trypsin and resuspended in fresh medium before plating.
(§6) Cells are seeded in 96 well microtiter plates, at 5×10^3 cells per well in aliquots of 195 μL medium, and they are allowed to attach to the plate surface by growing in drug free medium for 18 hours. Afterward, samples are added in aliquots of 5 μL in a ranging from 10 to 10^−8 μg/mL, dissolved in DMSO:EtOH:PBS (0.5:0.5:99). After 48 hours exposure, the antitumor effect is measured by the SRB methodology: cells are fixed by adding 50 μL of cold 50% (wt/vol) trichloroacetic acid (TCA) and incubated for 60 minutes at 4° C. Plates are washed with deionised water and dried. 100 μL of SRB solution (0.4% wt/vol in 1% acetic acid) is added to each microtiter well and incubated for 10 minutes at room temperature. Unbound SRB is removed by washing with 1% acetic acid. Plates are air dried and bound stain is solubilized with Tris buffer. Optical densities are read on an automated spectrophotometric plate reader at a single wavelength of 490 nm.
(§7) The values for mean+/−SD of data from triplicate wells are calculated. Some parameters for cellular responses can be calculated: GI=growth inhibition, TGI=total growth inhibition (cytostatic effect) and LC=cell killing (cytotoxic effect).

Data set [4] concerns MDA-MB-231. It is filed as cell-based. The note with it: for GI50 / TGI: MDA-MB-231, 48 hours exposure, SRB; for TGI: total growth inhibition (cytostatic effect).
From the text: as §1, §2, §3, §4, §5, §6, §7

Data set [5] has as its system HT29. The class given is cell-based. Particulars: for GI50 / TGI: HT29, 48 hours exposure, SRB; for TGI: total growth inhibition (cytostatic effect).
From the text: as §1, §2, §3, §4, §5, §6, §7

Data set [6] concerns IGROV1 tumor cell line. The note with it: Jiang et al. 2001; cited from earlier work.
The test system of data set [7] is CCRF-CEM cancer lines. The note with it: Jiang et al. 2001; cited from earlier work.
The test system of data set [8] is HOP-92 cancer lines. The note with it: Jiang et al. 2001; cited from earlier work.
The test system of data set [9] is HT-29. Particulars: Sun and Sakemi 1991; cited from earlier work.

Broadly, the IC50 is the midpoint of a concentration-inhibition curve. 6-hydroxydiscodermindole: the IC50 in data set [1] is more than 5 µg/mL; in data set [2] it was 4.6 µg/mL.
By GI50 is commonly meant the concentration at which growth is held to half of that of the control. As a reminder, the CC50 is the concentration at which the toxic effect on the cells reaches its halfway point. As for `CC(=O)N=C1NCCC(c2c[nH]c3ccc(Br)cc23)N1` (single isomer, unassigned) [Compound II], in data set [3], the GI50 turned out to be 656 nM. Further, in [4], it took 6260 nM to reach half-maximal cytotoxicity (CC50), the GI50 is 418 nM and the TGI is reported as 1.52E−6 Molar. In data set [5], this compound came in with a GI50 of 388 nM and a TGI of 5.67E−7 Molar.
`COn1cc(C2CCNC(=NC(C)=O)N2)c2cc(Br)ccc21` (single isomer, unassigned) [Compound IV]: in data set [3], halving of growth (GI50) required 630 nM and the TGI came to 7.12E−7 Molar. Also, in [4], it took 5200 nM to reach half-maximal cytotoxicity (CC50), the GI50 came to 411 nM and the TGI is 1.37E−6 Molar. In data set [5], this compound gave a CC50 of 767 nM, a GI50 of 329 nM and a TGI of 4.65E−7 Molar.
Consider `COn1cc(C2CCNC(=NC(C)=O)N2)c2cc(Br)c(Br)cc21` (single isomer, unassigned) [Compound VI], for which, in data set [3], half-maximal cytotoxicity (CC50) was put at 1150 nM, the GI50 was determined as 1310 nM and the TGI was 4.05E−6 Molar. Further, in data set [4], the midpoint of cytotoxicity, the CC50, lay at 4950 nM; halving of growth (GI50) required 811 nM; the TGI worked out at 1.98E−6 Molar. In data set [5], it took 2480 nM to reach half-maximal cytotoxicity (CC50), growth was halved (GI50) at 473 nM and the TGI came out at 9.23E−7 Molar.
Take `COn1cc(C2CCNC(=N)N2)c2cc(Br)c(Br)cc21` (single isomer, unassigned) [Compound V]: the GI50 was 8700 nM in [3], 7960 nM in [4] and 7960 nM in data set [5]. Further, the TGI in [4] turned out to be 2.06E−5 Molar; in data set [5], 1.74E−5 Molar.
As for `C1=CN(c2c[nH]c3ccccc23)C(c2c[nH]c3ccccc23)N=C1` (stereo not drawn) [compound 8, 2,3-bis(3-indolyl)pyrimidine], the GI50 in data set [6] is less than 10 nM.
Take `COc1nc(-c2c[nH]c3ccccc23)cnc1N` [compound 19, 2-amino-3methoxyl-5-(3′-indolyl)pyrazine]: the values for the GI50 in data set [7] and in [8] were 810 nM and 30 nM, respectively.
For the compound discodermindole, the 50% inhibitory concentration (IC50) in data set [1] is 4.6 µg/mL; in data set [9], 12 µg/mL; in data set [2] it was 1.8 µg/mL.
